Key:
[1] = target: T1, XIAP BIR-3 (Homo sapiens, UniProt P98170); assay: Fluorescence polarization binding to XIAP BIR-3 with labeled peptide AbuRPF-K(5-Fam)-NH2; settings: XIAP BIR-3, 40 nM BIR3, 5 nM labeled peptide, 15 min RT, pH 7.5; read-out: XIAP, nM (binding affinity KD, as range)
T1 construct: 40 nM of the respective IAP BIR3
Method: (§1) The binding affinities of the compounds are reported as a KD value (μM). Briefly, various concentrations of test peptides were mixed with 5 nM of the fluorescently labeled peptide (i.e., a mutated N-terminal Smac peptide-AbuRPF-K(5-Fam)-NH2) and 40 nM of the respective IAP BIR3 for 15 min at RT in […] of 0.1M Potassium Phosphate buffer, pH 7.5 containing […] bovine g-globulin. Following incubation, the polarization values (mP) were measured on a Victor2V™ (available from PerkinElmer® Life Sciences) using a 485 nm excitation filter and a 520 nm emission filter. The reported binding affinities (KD values) are supplied as ranges (A=<0.1 μM, B=0.1 μM to 1 μM, C=>1 μM to 10 μM, D=>10 μM).

[2] = target: T2, cIAP-1 BIR-3 (Homo sapiens, UniProt Q13490); assay: Fluorescence polarization binding to cIAP-1 BIR-3 with labeled peptide AbuRPF-K(5-Fam)-NH2; settings: cIAP-1 BIR-3, 40 nM BIR3, 5 nM labeled peptide, 15 min RT, pH 7.5; read-out: cIAP1, nM (binding affinity KD, as range)
T2 construct: 40 nM of the respective IAP BIR3
Method: as §1

[3] = test system: SK-OV-3 cells; assay: MTT cell growth inhibition assay in ovarian cancer cell line SK-OV-3; type: cell-based; settings: Homo sapiens, 72 hrs incubation, read-out: SKOV3, nM (CC50, concentration giving 50% cell survival, as range)
Method: Compounds of the invention also were tested for their ability to inhibit the growth of an ovarian cancer cell line, SK-OV-3. A known assay previously used for measuring cell growth (as described in Hansen, M. B., Nielsen, S. E., and Berg, K. (1989) J. Immunol. Methods 119, 203-210 and incorporated herein by reference in its entirety) was used. Briefly, SK-OV-3 cells are seeded in 96-well plates in McCoy's medium containing 10% fetal bovine serum albumin (5,000 per well) and incubated overnight at 37° C. The next day, test compounds are added at various concentrations (0.003-10 μM) and the plates are incubated at 37° C. for an additional 72 hrs. This incubation time was considered to be optimal for measuring inhibitory effects of the different compounds tested. 50 microliters of 5 mg/mL MTT reagent is added to each well and the plates are incubated at 37° C. for another three (3) hours. At the end of the three (3) hour incubation period, 50 microliters of DMSO is added to each well to dissolve cells and the optical density (OD) of the wells is measured with a microplate reader (Victor^2 1420™, Wallac, Finland) at 535 nm. Cell survival (CS) was calculated using the following equation: CS=(OD treated well/mean OD control wells)×100%.
The CC50 (reported in the following tables), is defined as the drug concentration that results in 50% cell survival (CS), and is derived by calculating the point where the dose-response curve crosses the 50% CS point using GraphPad Prism® graphing software. The reported CC50 values are supplied as ranges (A=<0.1 μM, B=0.1 μM to 1 μM, C=>1 μM to 10 μM, D=>10 μM).

T2 sequence (Q13490 253-363 limits assumed): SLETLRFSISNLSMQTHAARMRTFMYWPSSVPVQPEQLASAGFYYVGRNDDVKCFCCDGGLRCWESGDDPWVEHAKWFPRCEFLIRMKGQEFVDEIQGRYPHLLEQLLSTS
T1 sequence (P98170 241-356 limits assumed): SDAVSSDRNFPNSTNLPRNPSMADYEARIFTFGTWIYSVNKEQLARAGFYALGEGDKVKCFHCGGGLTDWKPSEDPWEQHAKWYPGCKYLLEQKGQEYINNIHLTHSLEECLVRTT

Compound	Kd [1] [nM]	Kd [2] [nM]	CC50 [3] [nM]
CN[C@@H](C)C(=O)N[C@H](C(=O)N1CC[C@@H]2[C@H]1[C@@H](C(=O)N[C@@H](Cc1ccccc1)C(=O)O)CN2S(C)(=O)=O)C1CCCCC1 [Example 30, 2-({4-[2-Cyclohexyl-2-(2-methylamino-propionylamino)-acetyl]-1-methanesulfonyl-octahydro-pyrrolo[3,2-b]pyrrole-3-carbonyl}-amino)-3-phenyl-propionic acid]	1000 to 10000	< 100	1000 to 10000
CN[C@@H](C)C(=O)N[C@H](C(=O)N1CC[C@@H]2[C@H]1[C@@H](C(=O)NCc1ccc(F)cc1)CN2S(C)(=O)=O)C1CCCCC1 [Example 3, 4-[2-Cyclohexyl-2-(2-methylamino-propionylamino)-acetyl]-1-methanesulfonyl-octahydro-pyrrolo[3,2-b]pyrrole-3-carboxylic acid 4-fluoro-benzylamide]	< 100	< 100	< 100
CN[C@@H](C)C(=O)N[C@H](C(=O)N1CC[C@@H]2[C@H]1[C@@H](C(=O)Nc1ccc3ccccc3c1)CN2S(C)(=O)=O)C1CCCCC1 [Example 18, 4-[2-Cyclohexyl-2-(2-methylamino-propionylamino)-acetyl]-1-methanesulfonyl-octahydro-pyrrolo[3,2-b]pyrrole-3-carboxylic acid naphthalen-2-ylamide]	100 to 1000	< 100	< 100
CN[C@@H](C)C(=O)N[C@H](C(=O)N1CC[C@@H]2[C@H]1[C@@H](C(=O)NCc1ccc(F)cc1)CN2C(C)=O)C(C)(C)C [Example 35, 1-Acetyl-4-[3,3-dimethyl-2-(2-methylamino-propionylamino)-butyryl]-octahydro-pyrrolo[3,2-b]pyrrole-3-carboxylic acid 4-fluoro-benzylamide]	< 100	< 100	< 100
CN[C@@H](C)C(=O)N[C@H](C(=O)N1CC[C@@H]2[C@H]1[C@@H](C(=O)N[C@@H](Cc1ccccc1)C(=O)OC)CN2S(C)(=O)=O)C1CCCCC1 [Example 10, 2-({4-[2-Cyclohexyl-2-(2-methylamino-propionylamino)-acetyl]-1-methanesulfonyl-octahydro-pyrrolo[3,2-b]pyrrole-3-carbonyl}-amino)-3-phenyl-propionic acid methyl ester]	100 to 1000	100 to 1000	1000 to 10000
CN[C@@H](C)C(=O)N[C@H](C(=O)N1CC[C@@H]2[C@H]1[C@@H](C(=O)NCc1ccccc1)CN2S(C)(=O)=O)C(C)(C)C [Example 20, 4-[3,3-Dimethyl-2-(2-methylamino-propionylamino)-butyryl]-1-methanesulfonyl-octahydro-pyrrolo[3,2-b]pyrrole-3-carboxylic acid benzylamide]	< 100	< 100	< 100
CN[C@@H](C)C(=O)N[C@H](C(=O)N1CC[C@@H]2[C@H]1[C@@H](C(=O)N(C)Cc1ccccc1)CN2S(C)(=O)=O)C1CCCCC1 [Example 9, 4-[2-Cyclohexyl-2-(2-methylamino-propionylamino)-acetyl]-1-methanesulfonyl-octahydro-pyrrolo[3,2-b]pyrrole-3-carboxylic acid benzyl-methyl-amide]	< 100	< 100	100 to 1000
CN[C@@H](C)C(=O)N[C@H](C(=O)N1CC[C@H]2NC[C@H](C(=O)Nc3ccccc3)[C@H]21)C1CCCCC1 [Example 31]	100 to 1000	< 100	100 to 1000
CN[C@@H](C)C(=O)N[C@H](C(=O)N1CC[C@@H]2[C@H]1[C@@H](C(=O)Nc1cccc3ncccc13)CN2S(C)(=O)=O)C(C)(C)C [Example 47, 4-[3,3-Dimethyl-2-(2-methylamino-propionylamino)-butyryl]-1-methanesulfonyl-octahydro-pyrrolo[3,2-b]pyrrole-3-carboxylic acid quinolin-5-ylamide]	< 100	< 100	< 100
CN[C@@H](C)C(=O)N[C@H](C(=O)N1CC[C@@H]2[C@H]1[C@@H](C(=O)N[C@H](C)c1ccccc1)CN2S(C)(=O)=O)C1CCCCC1 [Example 7, 4-[2-Cyclohexyl-2-(2-methylamino-propionylamino)-acetyl]-1-methanesulfonyl-octahydro-pyrrolo[3,2-b]pyrrole-3-carboxylic acid (1-phenyl-ethyl)-amide]	100 to 1000	< 100	100 to 1000
CN[C@@H](C)C(=O)N[C@H](C(=O)N1CC[C@@H]2[C@H]1[C@@H](C(=O)Nc1ccc3ccccc3n1)CN2S(C)(=O)=O)C(C)(C)C [Example 52, 4-[3,3-Dimethyl-2-(2-methylamino-propionylamino)-butyryl]-1-methanesulfonyl-octahydro-pyrrolo[3,2-b]pyrrole-3-carboxylic acid quinolin-2-ylamide]	100 to 1000	< 100	< 100
CNC(=O)N1C[C@H](C(=O)NCc2ccc(F)cc2)[C@@H]2[C@H]1CCN2C(=O)[C@@H](NC(=O)[C@H](C)NC)C(C)(C)C [Example 41, 4-[3,3-Dimethyl-2-(2-methylamino-propionylamino)-butyryl]-hexahydro-pyrrolo[3,2-b]pyrrole-1,3-dicarboxylic acid 3-(4-fluoro-benzylamide) 1-methylamide]	< 100	< 100	< 100
CN[C@@H](C)C(=O)N[C@H](C(=O)N1CC[C@@H]2[C@H]1[C@@H](C(=O)Nc1ccccc1)CN2S(C)(=O)=O)C1CCCCC1 [Example 8, 4-[2-Cyclohexyl-2-(2-methylamino-propionylamino)-acetyl]-1-methanesulfonyl-octahydro-pyrrolo[3,2-b]pyrrole-3-carboxylic acid phenylamide]	100 to 1000	< 100	< 100
CN[C@@H](C)C(=O)N[C@H](C(=O)N1CC[C@@H]2[C@H]1[C@@H](C(=O)N[C@@H]1CCCc3ccccc31)CN2S(C)(=O)=O)C1CCCCC1 [Example 1, 4-[2-Cyclohexyl-2-(2-methylamino-propionylamino)-acetyl]-1-methanesulfonyl-octahydro-pyrrolo[3,2-b]pyrrole-3-carboxylic acid (1,2,3,4-tetrahydro-naphthalen-1-yl)-amide]	< 100	< 100	< 100
CN[C@@H](C)C(=O)N[C@H](C(=O)N1CC[C@@H]2[C@H]1[C@@H](C(=O)N[C@H]1CCCc3ccccc31)CN2S(C)(=O)=O)C1CCCCC1 [Example 4, 4-[2-Cyclohexyl-2-(2-methylamino-propionylamino)-acetyl]-1-methanesulfonyl-octahydro-pyrrolo[3,2-b]pyrrole-3-carboxylic acid (1,2,3,4-tetrahydro-naphthalen-1-yl)-amide]	< 100	< 100	100 to 1000
CN[C@@H](C)C(=O)N[C@H](C(=O)N1CC[C@@H]2[C@H]1[C@@H](C(=O)Nc1cccc3ccncc13)CN2S(C)(=O)=O)C(C)(C)C [Example 45, 4-[3,3-Dimethyl-2-(2-methylamino-propionylamino)-butyryl]-1-methanesulfonyl-octahydro-pyrrolo[3,2-b]pyrrole-3-carboxylic acid isoquinolin-8-ylamide]	100 to 1000	< 100	100 to 1000

Reference: patent US8481495B2 (TetraLogic Pharmaceuticals Corporation, priority 2009, dated 2013)
